{
  "source": "patent US20200407717A1",
  "about": "“METHODS OF MODULATING ANTISENSE ACTIVITY” (Ionis Pharmaceuticals, Inc., priority 2018, published 2020)",
  "system": "Malat1 RNA",
  "test": "Antisense activity by RT-qPCR, Malat1, HEK cells",
  "type": "cell-based",
  "method": "A431 cells were grown at 10,000 cells per well and pre-treated with a variety of growth factors to determine if the addition of exogenous growth factors affects antisense activity or uptake of modified antisense oligonucleotides in a cell. The growth factors used were EGF, insulin growth factor (IGF), transforming growth factor (TGF), […] (VEGF), hepatocyte growth factor (HGF), platelet growth factor (PGF) and fibroblasts growth factor (FGF). To test antisense activity, cells were treated for 4 hours with a growth factor or vehicle alone, and then treated with compound no. 25690 (complementary to Drosha), compound no. 395254 (complementary to Malat1), or vehicle alone. RNA was isolated from the cells and Drosha or Malat1 RNA levels were measured by RT-qPCR. Human primer probe set 13816 (forward sequence […], designated herein as SEQ ID NO: 3; reverse sequence […], designated herein as SEQ ID NO: 4; probe sequence […], designated herein as SEQ ID NO: 5) was used to measure Drosha mRNA levels and primer probe set RTS2736 (forward sequence […], designated herein as SEQ ID NO: 6; reverse sequence […], designated herein as SEQ ID NO: 7; probe sequence TGCCACATCGCCACCCCGT, designated herein as SEQ ID NO: 8) was used to measure Malat1 RNA levels. Drosha and Malat1 RNA levels were normalized to total RNA content, as measured by RIBOGREEN®. Results are presented in the tables below as normalized RNA levels, relative to untreated control cells.\nHEK cells were transfected with 2 μg plasmid encoding EGFR using Lipofectamine 3000 (ThermoFisher) at 2 μg/million cells. Cells were grown for 2 weeks in G418 selection media to select clones overexpressing EGFR. Cells were treated with compound no. 395254 for 16 hours prior to RT-qPCR analysis for Malat1, as in Example 8. The results, shown in the table below, indicate that antisense activity was increased in cells with higher expression levels of EGFR.",
  "note": "e = 2'-O-(2-methoxyethyl) (MOE); d = 2'-deoxy (DNA)",
  "data": [
    {"sequence": "GGCATATGCAGATAATGTTC (sugars from the 5' end e5 d10 e5, all phosphorothioate, methylation of C not given here) [compound 395254]", "values": [
      {"measurement": "Malat1 RNA (% Control)", "setting": "1 nM, HEK cells overexpressing EGFR", "result": 100, "unit": "% control"},
      {"measurement": "Malat1 RNA (% Control)", "setting": "1 nM, Wild type HEK cells", "result": 100, "unit": "% control"},
      {"measurement": "Malat1 RNA (% Control)", "setting": "2 nM, HEK cells overexpressing EGFR", "result": 77.8, "unit": "% control"},
      {"measurement": "Malat1 RNA (% Control)", "setting": "2 nM, Wild type HEK cells", "result": 98.3, "unit": "% control"},
      {"measurement": "Malat1 RNA (% Control)", "setting": "3.9 nM, HEK cells overexpressing EGFR", "result": 73.4, "unit": "% control"},
      {"measurement": "Malat1 RNA (% Control)", "setting": "3.9 nM, Wild type HEK cells", "result": 96, "unit": "% control"},
      {"measurement": "Malat1 RNA (% Control)", "setting": "7.8 nM, HEK cells overexpressing EGFR", "result": 73.3, "unit": "% control"},
      {"measurement": "Malat1 RNA (% Control)", "setting": "7.8 nM, Wild type HEK cells", "result": 87.5, "unit": "% control"},
      {"measurement": "Malat1 RNA (% Control)", "setting": "15.6 nM, HEK cells overexpressing EGFR", "result": 68.1, "unit": "% control"},
      {"measurement": "Malat1 RNA (% Control)", "setting": "15.6 nM, Wild type HEK cells", "result": 81.4, "unit": "% control"},
      {"measurement": "Malat1 RNA (% Control)", "setting": "31.3 nM, HEK cells overexpressing EGFR", "result": 62.2, "unit": "% control"},
      {"measurement": "Malat1 RNA (% Control)", "setting": "31.3 nM, Wild type HEK cells", "result": 86.2, "unit": "% control"},
      {"measurement": "Malat1 RNA (% Control)", "setting": "62.5 nM, HEK cells overexpressing EGFR", "result": 62.4, "unit": "% control"},
      {"measurement": "Malat1 RNA (% Control)", "setting": "62.5 nM, Wild type HEK cells", "result": 95.4, "unit": "% control"},
      {"measurement": "Malat1 RNA (% Control)", "setting": "125 nM, HEK cells overexpressing EGFR", "result": 55.9, "unit": "% control"},
      {"measurement": "Malat1 RNA (% Control)", "setting": "125 nM, Wild type HEK cells", "result": 82.7, "unit": "% control"},
      {"measurement": "Malat1 RNA (% Control)", "setting": "250 nM, HEK cells overexpressing EGFR", "result": 52.9, "unit": "% control"},
      {"measurement": "Malat1 RNA (% Control)", "setting": "250 nM, Wild type HEK cells", "result": 72.1, "unit": "% control"},
      {"measurement": "Malat1 RNA (% Control)", "setting": "1000 nM, HEK cells overexpressing EGFR", "result": 36.5, "unit": "% control"},
      {"measurement": "Malat1 RNA (% Control)", "setting": "1000 nM, Wild type HEK cells", "result": 47.1, "unit": "% control"},
      {"measurement": "Malat1 RNA (% Control)", "setting": "2000 nM, HEK cells overexpressing EGFR", "result": 35.3, "unit": "% control"},
      {"measurement": "Malat1 RNA (% Control)", "setting": "2000 nM, Wild type HEK cells", "result": 28.5, "unit": "% control"},
      {"measurement": "Malat1 RNA (% Control)", "setting": "5000 nM (so in the source), HEK cells overexpressing EGFR", "result": 44.1, "unit": "% control"},
      {"measurement": "Malat1 RNA (% Control)", "setting": "5000 nM (so in the source), Wild type HEK cells", "result": 54.8, "unit": "% control"},
      {"measurement": "antisense activity in cells with higher expression levels of EGFR", "setting": "16 hours", "result": "increased"}
    ]}
  ]
}
